Patent US20050214376A1, “Hydrogel-containing medical articles and methods of using and making the same” (priority 2003, published 2005)

Assays:
[1] = Uptake rates of active agents into hydrogel samples; format: physicochemical; details: for time to reach the same concentration in the hydrogel as the uptake solution: 1 mm hydrogel samples, methylene blue 1 ppm, p-nitrophenol 0.4 wt. %
Method: Uptake solutions of methylene blue (1 ppm) and p-nitrophenol (0.4 wt. %) were prepared. […] The hydrogels were then carefully blotted of excess solution and were each transferred into a second beaker containing 30 ml of a 10 mM phosphate buffer solution with a pH of 6 to equilibrate.
The hydrogels were continuously agitated to ensure that the equilibrium state was reached. The uptake of p-nitrophenol and methylene blue was assumed to correspond to the amount that was released into the washing buffer solution. […] Methylene blue was similarly measured at 655 nm and the calibration curve was in the range of 0.0025 ppm to 3 ppm.

[2] = tested on: human skin; details: 107 subjects
Source text: Subjects fulfilled specific inclusion criteria including not being pregnant or breastfeeding, being over 18 years old, having healthy skin, and not having used any dermatological or cosmetic preparation on the test area within 5 days before the beginning of the study.
Briefly, the tested hydrogels were applied under occlusion on the outer aspect of the upper arm for a defined time. The applications were repeated 9 times over a period of 3 consecutive weeks, a duration necessary for the possible induction of an immune response. The irritancy potential was evaluated and compared to the irritancy potential of the standard, SLS. After a two-week rest period with no treatment, the tested hydrogels were applied under occlusion to the induction site and to a virgin site on the volar side of the underarm for a defined period of time to trigger a possible immune response.
The final pH of the hydrogels was adjusted to about 5.5.
Possible skin reactions to the products were scored according to the scale reproduced in Table 5 above.
In summary, the test product is considered to have a low sensitization potential if none of the subjects reported a grade 2 or higher dermal response on days 38 to 40 and no more than two subjects reported a grade 1 dermal response on days 38 to 40. A moderate sensitization potential is assigned if a maximum of 2 subjects reported a grade 2 or higher dermal response on days 38 to 40 and a maximum of 4 subjects reported a grade 1 response on days 38 to 40. A high sensitization potential is assigned if 3 or more subjects reported a grade 2 or higher dermal response on days 38 to 40 and 5 or more subjects reported a grade 1 response on days 38 to 40.
The cumulative irritancy score represents the sum of the irritancy scores assigned on days 3, 5, 8, 10, 12, 15, 17, 19, and 22. […] An irritancy score was assigned to each induction and virgin site on days 36, 38, 39 and 40, and their respective scores were added up separately to produce the cumulative irritancy score presented in the fourth column of Table 10. The fifth and sixth columns indicate the number of subjects that experienced a grade 2 or greater response on each of days 38, 39 and 40, and the number of subjects that experienced a grade 1 response on each of days 38, 39, and 40.

[3] = tested on: human skin; details: both, in vivo

O=[N+]([O-])c1ccc(O)cc1 [p-nitrophenol]
time to reach the same concentration in the hydrogel as the uptake solution [1]: about 15 minutes

CCCCCCCCCCCCOS(=O)(=O)[O-].[Na+] [Positive Control, sodium lauryl sulphate]
Cumulative Irritancy Score ([2]; 22-day induction phase): 21 | Number of reacting subjects ([2]; 22-day induction phase): 11 | Type of Reactivity ([2]; 22-day induction phase): Minimal erythema | subjects with slight glazed appearance and/or marked glazing ([2]; induction phase): 20 | C: Glazing with peeling & cracking, number of subjects [3]: 0 | D: Glazing with fissures, number of subjects [3]: 0 | E: Film of dried serious exudate covering all or part of the patch site, number of subjects [3]: 0 | F: Small petechial erosions and/or scabs, number of subjects [3]: 0 | Maximum single score [3]: 1 | Maximum sum [3]: 3 | Minimum single score [3]: 0 | Minimum sum [3]: 0 | N (reacting subjects) [3]: 19 | Slight itch, number of subjects [3]: 0 | Sum of scores for dermal reactions [3]: 23.00

CN(C)c1ccc2nc3ccc(=[N+](C)C)cc-3sc2c1 [methylene blue]
time to reach the same concentration in the hydrogel as the uptake solution [1]: less than 1.50 minutes | concentration in hydrogel relative to the initial uptake solution ([1]; within an hour): 6 times
